In data set [1] the target is T1, Nuclear factor erythroid 2-related factor 2 (Homo sapiens) (UniProt Q16236).
T1 sequence (whole entry): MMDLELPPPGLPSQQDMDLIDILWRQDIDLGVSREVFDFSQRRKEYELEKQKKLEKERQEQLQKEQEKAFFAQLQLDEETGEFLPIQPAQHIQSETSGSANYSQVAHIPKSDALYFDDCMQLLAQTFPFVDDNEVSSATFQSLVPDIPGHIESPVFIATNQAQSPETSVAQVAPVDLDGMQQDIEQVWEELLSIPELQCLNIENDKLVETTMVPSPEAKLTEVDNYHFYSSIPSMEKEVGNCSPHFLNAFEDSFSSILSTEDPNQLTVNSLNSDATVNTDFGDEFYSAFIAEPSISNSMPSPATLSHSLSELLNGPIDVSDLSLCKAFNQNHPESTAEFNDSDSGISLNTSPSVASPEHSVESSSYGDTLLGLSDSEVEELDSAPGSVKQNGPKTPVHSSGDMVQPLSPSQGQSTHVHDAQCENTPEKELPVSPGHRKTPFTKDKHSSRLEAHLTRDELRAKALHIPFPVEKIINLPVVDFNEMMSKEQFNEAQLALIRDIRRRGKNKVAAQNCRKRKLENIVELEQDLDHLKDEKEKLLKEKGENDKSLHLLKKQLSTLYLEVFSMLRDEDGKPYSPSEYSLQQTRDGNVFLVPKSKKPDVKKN
In words: Activation of Nrf2 in human HepG2-ARE-C8 cells assessed as upregulation of ARE level at 40 uM after 12 hrs by luciferase reporter gene assay relative to control. The format is cell-based.

For data set [2], the target named is T1, Nuclear factor erythroid 2-related factor 2 (Homo sapiens). In words: Activation of Nrf2 in human HepG2-ARE-C8 cells assessed as upregulation of ARE level at 80 uM after 12 hrs by luciferase reporter gene assay relative to control. The format is cell-based.
Data set [3] shares this target. In words: Activation of Nrf2 in human HepG2-ARE-C8 cells assessed as upregulation of ARE level at 160 uM after 12 hrs by luciferase reporter gene assay relative to control. The format is cell-based.
The test system of data set [4] is HCT-116. In words: Cytotoxicity against human HCT116 cells assessed as reduction of cell proliferation at 80 uM after 24 hrs by MTT assay. The settings on record: hct-116, 24 h. In kind it is cell-based.
Data set [5] in a line: Chemical stability assessed as compound degradation after 2 weeks. The format is physicochemical. The settings on record: 336 h.
Data set [6] deals with T1, Nuclear factor erythroid 2-related factor 2 (Homo sapiens). In words: Activation of Nrf2 in human HepG2-ARE-C8 cells assessed as upregulation of ARE level at 20 uM after 12 hrs by luciferase reporter gene assay relative to control. In kind it is cell-based.
Data set [7] has the same target. In words: Activation of Nrf2 in human HepG2-ARE-C8 cells assessed as upregulation of ARE level at 0.2 uM after 12 hrs by luciferase reporter gene assay relative to control. The format is cell-based.
Data set [8] has the same target. In words: Activation of Nrf2 in human HepG2-ARE-C8 cells assessed as upregulation of ARE level at 0.02 uM after 12 hrs by luciferase reporter gene assay relative to control. In kind it is cell-based.
For data set [9] the target is unchanged. In words: Activation of Nrf2 in human HepG2-ARE-C8 cells assessed as upregulation of ARE level at 2 uM after 12 hrs by luciferase reporter gene assay relative to control. The format is cell-based.
Data set [10] deals with HCT-116. In words: Cytotoxicity against human HCT116 cells assessed as effect on cell proliferation at 5 to 80 uM after 24 hrs by MTT assay. In kind it is cell-based. As to conditions: hct-116, 24 h.
Data set [11] deals with T1, Nuclear factor erythroid 2-related factor 2 (Homo sapiens). In words: Activation of Nrf2 in human HepG2-ARE-C8 cells assessed as upregulation of ARE level at 50 uM after 12 hrs by luciferase reporter gene assay relative to control. The format is cell-based.
For data set [12] the target is unchanged. In words: Activation of Nrf2 in human HCT116 cells assessed as upregulation of HO-1 expression at 10 uM measured at 4 hrs by Western blot analysis. In kind it is cell-based. The settings on record: HCT-116.
For data set [13] the target is unchanged. In words: Activation of Nrf2 in human HCT116 cells assessed as upregulation of NQO1 expression after 6 hrs by Western blot analysis. In kind it is cell-based. The settings on record: HCT-116.
The target is the same in data set [14]. In words: Activation of Nrf2 in human HCT116 cells after 6 hrs by Western blot analysis. In kind it is cell-based. As to conditions: HCT-116.
The target is the same in data set [15]. In words: Activation of Nrf2 in human HCT116 cells at 10 uM after 2 hrs by Western blot analysis. In kind it is cell-based. The settings on record: HCT-116.
For data set [16] the target is unchanged. In words: Activation of Nrf2 in human HCT116 cells at 10 uM by qRT-PCR analysis. The settings on record: HCT-116, TDE = time-dependent effect. The format is cell-based.
The target is the same in data set [17]. In words: Activation of Nrf2 in human HCT116 cells at 10 uM measured at 4 hrs by qRT-PCR analysis relative to control. The settings on record: HCT-116. In kind it is cell-based.
Data set [18] shares this target. In words: Activation of Nrf2 in human HCT116 cells assessed as upregulation of GCLM gene expression at 10 uM measured at 6 hrs by qRT-PCR analysis relative to control. The settings on record: HCT-116. The format is cell-based.
Data set [19] shares this target. In words: Activation of Nrf2 in human HCT116 cells assessed as upregulation of HO-1 gene expression at 10 uM measured at 6 hrs by qRT-PCR analysis relative to control. In kind it is cell-based. As to conditions: HCT-116.
Data set [20] has the same target. In words: Activation of Nrf2 in human HCT116 cells assessed as upregulation of NQO1 gene expression at 10 uM measured over 1 to 24 hrs by qRT-PCR analysis relative to control. The format is cell-based. As to conditions: HCT-116.
The target is the same in data set [21]. In words: Activation of Nrf2 in human HCT116 cells measured at 4 hrs by qRT-PCR analysis. The format is cell-based. The settings on record: HCT-116.
The target is the same in data set [22]. In words: Activation of Nrf2 in human HCT116 cells assessed as upregulation of GCLM gene expression measured at 4 hrs by qRT-PCR analysis. In kind it is cell-based. The settings on record: HCT-116.
Data set [23] shares this target. In words: Activation of Nrf2 in human HCT116 cells assessed as upregulation of HO-1 gene expression measured at 4 hrs by qRT-PCR analysis. As to conditions: HCT-116. In kind it is cell-based.
For data set [24] the target is unchanged. In words: Activation of Nrf2 in human HCT116 cells assessed as upregulation of GCLM gene expression at 40 uM measured at 4 hrs by qRT-PCR analysis relative to control. As to conditions: HCT-116. In kind it is cell-based.
The target is the same in data set [25]. In words: Activation of Nrf2 in human HCT116 cells assessed as upregulation of HO-1 gene expression at 40 uM measured at 4 hrs by qRT-PCR analysis relative to control. In kind it is cell-based. The settings on record: HCT-116.
The target is the same in data set [26]. In words: Activation of Nrf2 in human HCT116 cells at 40 uM measured at 4 hrs by qRT-PCR analysis relative to control. In kind it is cell-based. As to conditions: HCT-116.
Data set [27] shares this target. In words: Activation of Nrf2 in human HCT116 cells assessed as upregulation of NQO1 gene expression at 40 uM measured at 4 hrs by qRT-PCR analysis relative to control. The settings on record: HCT-116. The format is cell-based.

Active and inactive are the calls of the source. The calls are words filed in the database; no cut-off is given here.

For the molecule `O=[N+]([O-])c1ccccc1-c1nc(-c2ccc3nc[nH]c3c2)no1`, the fold change (FC) in data set [1] is 53.6; in data set [2], 42.6; in data set [3] it was 38.4; in data set [6], 36.6; in [7] it was 3.76; in data set [8] it was 1.73. Further, the fold change (FC) in data set [9] was 12.1. Besides, the Activity result with HCT-116 [4] is listed as “Non-toxic”. The Stability result in [5] was “Unstable”.

Turning to `Cn1nnc2cc(-c3noc(-c4ccccc4)n3)ccc21`, the fold change (FC) was 7.34 in data set [1]; 7.67 in data set [2]; 11.7 in data set [3]; 5.65 in data set [6]; 1.12 in [7]; 1.18 in [8]. The fold change (FC) in data set [9] was 4.48. In the data set with HCT-116 [10], the Activity result was “Non-toxic”.

As to `O=[N+]([O-])c1ccc(-c2nc(-c3ccc4nc[nH]c4c3)no2)cc1`, the fold change (FC) is 36.7 in data set [1]; 30.6 in data set [2]; 38.3 in data set [3]; 15.6 in [6]; 2.02 in data set [7]; 1.64 in data set [8]. Besides, in data set [9], the fold change (FC) is 6.59. Also, the Activity result in the data set with HCT-116 [4] is on record as “Non-toxic”. Besides, the Stability result in [5] is given as “Unstable”.

On to `Cc1nc2cc(-c3noc(-c4ccccc4Br)n3)ccc2o1`, for which the fold change (FC) is 4.05 in data set [1]; 5.88 in data set [2]; 6 in data set [3]; 3.31 in [6]; 5.47 in [11]; 1.22 in data set [7]. Moreover, the fold change (FC) in data set [8] amounted to 1.18; in data set [9] it was 1.47.

Consider `Cn1nnc2ccc(-c3noc(-c4ccc(F)cc4)n3)cc21`, for which the fold change (FC) was 5.96 in [1]; 5.48 in [2]; 8.36 in data set [3]; 3.88 in data set [6]; 1.83 in [7]; 1.46 in data set [8]. For the same molecule, the fold change (FC) in data set [9] stood at 3.17. In addition, the Activity entry with HCT-116 [10] is on record as “Non-toxic”.

As for `Cn1cnc2ccc(-c3noc(-c4ccc5cc[nH]c5c4)n3)cc21`, the fold change (FC) turned out to be 12.4 in data set [1]; 12.1 in [2]; 8.73 in [3]; 5 in [17]; 2.5 in data set [18]; 2.4 in data set [19]. The fold change (FC) amounted to 1.5 in data set [20]; 3.8 in data set [24]; 7 in data set [25]; 3.4 in [26]; 2 in [27]; 7.61 in data set [6]. Also, the fold change (FC) in data set [7] worked out at 1.5; in data set [8], 1.09; in [9] it was 3.35. In addition, the Activity entry was “Non-toxic” in the data set on HCT-116 [10]; “Dose-dependent effect” in data set [13]; “Dose-dependent effect” in [14]; “tde” in [16]; “Dose-dependent effect” in data set [21]; “Dose-dependent effect” in data set [22]. Besides, the Activity result in data set [23] was “Dose-dependent effect”. For the same molecule, the outcome in data set [12] and in data set [15] was Active.

The values are drawn from ChEMBL document CHEMBL3585308, “Discovery and Modification of in Vivo Active Nrf2 Activators with 1,2,4-Oxadiazole Core: Hits Identification and Structure-Activity Relationship Study” (J Med Chem, 2015).
